Target: T1, sGC α1/β1 heterodimer (Homo sapiens, UniProt Q02108+Q02153)
T1 construct: expressed in transfected cells
T1 sequence (Q02108 1-690): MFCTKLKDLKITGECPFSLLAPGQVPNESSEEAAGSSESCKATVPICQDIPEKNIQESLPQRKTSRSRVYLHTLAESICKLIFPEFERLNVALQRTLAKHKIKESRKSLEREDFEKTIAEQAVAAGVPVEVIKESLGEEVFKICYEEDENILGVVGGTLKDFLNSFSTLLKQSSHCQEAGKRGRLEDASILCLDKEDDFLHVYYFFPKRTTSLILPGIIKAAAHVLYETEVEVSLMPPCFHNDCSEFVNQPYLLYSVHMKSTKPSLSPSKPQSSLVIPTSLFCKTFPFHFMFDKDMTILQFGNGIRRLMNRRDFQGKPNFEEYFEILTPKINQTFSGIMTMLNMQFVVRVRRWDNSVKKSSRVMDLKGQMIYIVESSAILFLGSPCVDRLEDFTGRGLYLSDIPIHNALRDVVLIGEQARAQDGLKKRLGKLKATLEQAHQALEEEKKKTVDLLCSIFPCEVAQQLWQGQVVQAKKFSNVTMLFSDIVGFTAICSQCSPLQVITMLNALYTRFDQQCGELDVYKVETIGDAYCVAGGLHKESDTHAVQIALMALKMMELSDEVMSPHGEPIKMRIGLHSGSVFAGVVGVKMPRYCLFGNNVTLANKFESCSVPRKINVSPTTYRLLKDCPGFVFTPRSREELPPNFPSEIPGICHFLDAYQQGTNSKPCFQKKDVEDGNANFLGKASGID
T1 sequence (Q02153 1-619): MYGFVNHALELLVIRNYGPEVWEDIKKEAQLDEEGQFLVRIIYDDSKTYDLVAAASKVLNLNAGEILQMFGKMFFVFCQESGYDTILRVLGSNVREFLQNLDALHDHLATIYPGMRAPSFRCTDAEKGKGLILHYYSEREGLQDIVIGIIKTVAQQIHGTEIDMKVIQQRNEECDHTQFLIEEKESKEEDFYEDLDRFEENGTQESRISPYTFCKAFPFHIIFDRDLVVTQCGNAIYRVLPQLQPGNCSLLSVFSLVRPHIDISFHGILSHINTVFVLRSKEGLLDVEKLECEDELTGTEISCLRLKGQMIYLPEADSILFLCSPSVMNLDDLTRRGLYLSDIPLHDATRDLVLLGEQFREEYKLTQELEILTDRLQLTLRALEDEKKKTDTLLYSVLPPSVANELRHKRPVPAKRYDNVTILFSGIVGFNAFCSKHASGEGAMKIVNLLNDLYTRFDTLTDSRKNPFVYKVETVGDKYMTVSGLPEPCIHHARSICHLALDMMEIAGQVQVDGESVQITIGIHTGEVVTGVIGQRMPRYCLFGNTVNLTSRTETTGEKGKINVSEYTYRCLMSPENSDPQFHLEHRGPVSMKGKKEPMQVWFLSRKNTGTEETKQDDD
Assay: Cell-Based sGC Functional Assay (CASA Assay), cGMP generation in CHO-K1/sGC cells;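 further: reference Compound A is a published heme-dependent sGC activator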
Conditions: maximum cGMP production of Compound A set to 100% activation, read-out: % Act. (percent activation relative to Compound A)
In short: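 Intracellular cGMP quantified by HTRF competition after 1 h, 37 °C compound exposure, with or without 1 μM DETA-NO, in stable CHO-K1/sGC α1/β1 cells (4×10^5/mL; buffer with 0.5 mM IBMX, 5 mM MgCl2, 10 mM HEPES, 0.05% BSA; 2.5% DMSO). Activation normalized to reference Compound A maximum; 4P fit.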

Row | Compound | Emax [%]
1 | CCCc1nc(-c2nc(N)c3c(n2)NC(=O)C3(c2ccc(F)cn2)C2CC2)cn2ncnc12 (stereo not drawn) [Example 59A, 4-amino-5-cyclopropyl-5-(5-fluoropyridin-2-yl)-2-(8-propyl-[1,2,4]triazolo[1,5-a]pyrazin-6-yl)-5H-pyrrolo[2,3-d]pyrimidin-6(7H)-one] | 119
2 | Cc1nc2c(CCC(F)(F)C(F)(F)F)nc(-c3nc(N)c4c(n3)NC(=O)C4(C)c3ccc(F)cn3)cn2n1 (stereo not drawn) [Example 89B, 4-amino-5-(5-fluoropyridin-2-yl)-5-methyl-2-(2-methyl-8-(3,3,4,4,4-pentafluorobutyl)-[1,2,4]triazolo[1,5-a]pyrazin-6-yl)-5H-pyrrolo[2,3-d]pyrimidin-6(7H)-one] | 109
3 | Cc1ccc(C2(C3CC3)C(=O)Nc3nc(-c4cn5ncnc5c(CCCC(F)(F)F)n4)nc(N)c32)nc1 (racemic) [Example 47B, 4-amino-5-cyclopropyl-5-(5-methylpyridin-2-yl)-2-(8-(4,4,4-trifluorobutyl)-[1,2,4]triazolo[1,5-a]pyrazin-6-yl)-5H-pyrrolo[2,3-d]pyrimidin-6(7H)-one] | 114
4 | CCCc1nc(-c2nc(N)c3c(n2)NC(=O)[C@@]3(C)c2ccc(F)cc2)cn2nc(C)nc12 [Example 91A, (S)-4-amino-5-(4-fluorophenyl)-5-methyl-2-(2-methyl-8-propyl-[1,2,4]triazolo[1,5-a]pyrazin-6-yl)-5,7-dihydro-6H-pyrrolo[2,3-d]pyrimidin-6-one] | 105
5 | Nc1nc(-c2cn3ncnc3c(CCCC(F)(F)F)n2)nc2c1C(c1ccc(Cl)cc1)(C1CC1)C(=O)N2 (stereo not drawn) [Example 31B, 4-amino-5-(4-chlorophenyl)-5-cyclopropyl-2-(8-(4,4,4-trifluorobutyl)-[1,2,4]triazolo[1,5-a]pyrazin-6-yl)-5H-pyrrolo[2,3-d]pyrimidin-6(7H)-one] | 104
6 | Cc1nc2c(CCC(F)(F)C(F)(F)F)nc(-c3nc(O)c4c(n3)NC(=O)[C@@]4(C)c3ccc(F)cc3)cn2n1 [Example 133B, (S)-5-(4-fluorophenyl)-4-hydroxy-5-methyl-2-(2-methyl-8-(3,3,4,4,4-pentafluorobutyl)-[1,2,4]triazolo[1,5-a]pyrazin-6-yl)-5H-pyrrolo[2,3-d]pyrimidin-6(7H)-one] | 87
7 | Cc1nc2c(Cc3ccc(F)cc3)nc(-c3nc(N)c4c(n3)NC(=O)[C@@]4(C)c3ccc(F)cc3)cn2n1 [Example 87B, (S)-4-amino-2-(8-(4-fluorobenzyl)-2-methyl-[1,2,4]triazolo[1,5-a]pyrazin-6-yl)-5-(4-fluorophenyl)-5-methyl-5H-pyrrolo[2,3-d]pyrimidin-6(7H)-one] | 138
8 | CC(F)(F)c1ccc(C2(C)C(=O)Nc3nc(-c4cn5ncnc5c(CCC(F)(F)C(F)(F)F)n4)nc(N)c32)cn1 (racemic) [Example 16B, 4-amino-5-(6-(1,1-difluoroethyl)pyridin-3-yl)-5-methyl-2-(8-(3,3,4,4,4-pentafluorobutyl)-[1,2,4]triazolo[1,5-a]pyrazin-6-yl)-5H-pyrrolo[2,3-d]pyrimidin-6(7H)-one] | 77
9 | CC1(c2ccc(F)cn2)C(=O)Nc2nc(-c3cn4ncnc4c(CCCC(F)(F)F)n3)ncc21 (stereo not drawn) [Example 176B, 5-(5-fluoropyridin-2-yl)-5-methyl-2-(8-(4,4,4-trifluorobutyl)-[1,2,4]triazolo[1,5-a]pyrazin-6-yl)-5H-pyrrolo[2,3-d]pyrimidin-6(7H)-one] | 166
10 | CC1(c2ccc(C(F)(F)F)cc2)C(=O)Nc2nc(-c3cn4ncnc4c(CCCC(F)(F)F)n3)nc(O)c21 (stereo not drawn) [Example 137B, 4-hydroxy-5-methyl-2-(8-(4,4,4-trifluorobutyl)-[1,2,4]triazolo[1,5-a]pyrazin-6-yl)-5-(4-(trifluoromethyl)phenyl)-5H-pyrrolo[2,3-d]pyrimidin-6(7H)-one] | 102

Next, values leading:

Row | Emax [%] | Compound
11 | 156 | CC(F)(F)c1ccc(C2(C)C(=O)Nc3nc(-c4cn5ncnc5c(CCCC(F)(F)F)n4)nc(N)c32)cn1 (racemic) [Example 45B, 4-amino-5-(6-(1,1-difluoroethyl)pyridin-3-yl)-5-methyl-2-(8-(4,4,4-trifluorobutyl)-[1,2,4]triazolo[1,5-a]pyrazin-6-yl)-5H-pyrrolo[2,3-d]pyrimidin-6(7H)-one]
12 | 112 | CC1(c2ccccc2)C(=O)Nc2nc(-c3cn4ncnc4c(CCCC(F)(F)F)n3)nc(N)c21 (stereo not drawn) [Example 37B, 4-amino-5-methyl-5-phenyl-2-(8-(4,4,4-trifluorobutyl)-[1,2,4]triazolo[1,5-a]pyrazin-6-yl)-5H-pyrrolo[2,3-d]pyrimidin-6(7H)-one]
13 | 90 | CC1(c2cccc(F)c2)C(=O)Nc2nc(-c3cn4ncnc4c(CCC(F)(F)C(F)(F)F)n3)nc(N)c21 (stereo not drawn) [Example 14B, 4-amino-5-(3-fluorophenyl)-5-methyl-2-(8-(3,3,4,4,4-pentafluorobutyl)-[1,2,4]triazolo[1,5-a]pyrazin-6-yl)-5H-pyrrolo[2,3-d]pyrimidin-6(7H)-one]
14 | 161 | CCCCc1nc(-c2nc(O)c3c(n2)NC(=O)C3(C)c2ccc(Cl)cc2)cn2ncnc12 (stereo not drawn) [Example 157A, 2-(8-butyl-[1,2,4]triazolo[1,5-a]pyrazin-6-yl)-5-(4-chlorophenyl)-4-hydroxy-5-methyl-5H-pyrrolo[2,3-d]pyrimidin-6(7H)-one]
15 | 122 | CCCc1nc(-c2nc(N)c3c(n2)NC(=O)C3(C)c2ccc(Cl)cc2)cn2ncnc12 (stereo not drawn) [Example 53A, 4-amino-5-(4-chlorophenyl)-5-methyl-2-(8-propyl-[1,2,4]triazolo[1,5-a]pyrazin-6-yl)-5H-pyrrolo[2,3-d]pyrimidin-6(7H)-one]
16 | 67 | Cc1ccc(C2(C)C(=O)Nc3nc(-c4cn5ncnc5c(CCCC(F)(F)F)n4)nc(N)c32)nc1 (stereo not drawn) [Example 46B, 4-amino-5-methyl-5-(5-methylpyridin-2-yl)-2-(8-(4,4,4-trifluorobutyl)-[1,2,4]triazolo[1,5-a]pyrazin-6-yl)-5H-pyrrolo[2,3-d]pyrimidin-6(7H)-one]
17 | 101 | CC1(c2ccc(F)c(F)c2)C(=O)Nc2nc(-c3cn4ncnc4c(CCC(F)(F)F)n3)nc(N)c21 (stereo not drawn) [Example 84B, 4-amino-5-(3,4-difluorophenyl)-5-methyl-2-(8-(3,3,3-trifluoropropyl)-[1,2,4]triazolo[1,5-a]pyrazin-6-yl)-5H-pyrrolo[2,3-d]pyrimidin-6(7H)-one]
18 | 116 | CC1(c2ccc(F)c(F)c2)C(=O)Nc2nc(-c3cn4ncnc4c(CCC(F)(F)C(F)(F)F)n3)nc(O)c21 (stereo not drawn) [Example 169B, 5-(3,4-Difluorophenyl)-4-hydroxy-5-methyl-2-(8-(3,3,4,4,4-pentafluorobutyl)-[1,2,4]triazolo[1,5-a]pyrazin-6-yl)-5,7-dihydro-6H-pyrrolo[2,3-d]pyrimidin-6-one]
19 | 90 | CCCCc1nc(-c2nc(N)c3c(n2)NC(=O)C3(C)c2ccc(F)c(F)c2)cn2ncnc12 (stereo not drawn) [Example 64B, 4-amino-2-(8-butyl-[1,2,4]triazolo[1,5-a]pyrazin-6-yl)-5-(3,4-difluorophenyl)-5-methyl-5H-pyrrolo[2,3-d]pyrimidin-6(7H)-one]
20 | 147 | CC1(c2ccc(Cl)c(F)c2)C(=O)Nc2nc(-c3cn4ncnc4c(CCC(F)(F)C(F)(F)F)n3)nc(N)c21 (stereo not drawn) [Example 5B, 4-amino-5-(4-chloro-3-fluorophenyl)-5-methyl-2-(8-(3,3,4,4,4-pentafluorobutyl)-[1,2,4]triazolo[1,5-a]pyrazin-6-yl)-5H-pyrrolo[2,3-d]pyrimidin-6(7H)-one]
21 | 118 | CCCCc1nc(-c2nc(N)c3c(n2)NC(=O)C3(C)c2ccc(C)cn2)cn2ncnc12 (stereo not drawn) [Example 71B, 4-amino-2-(8-butyl-[1,2,4]triazolo[1,5-a]pyrazin-6-yl)-5-methyl-5-(5-methylpyridin-2-yl)-5H-pyrrolo[2,3-d)pyrimidin-6(7H)-one]

Source: US10925876B2, “Methods for using triazolo-pyrazinyl soluble guanylate cyclase activators in fibrotic disorders” (Merck Sharp & Dohme Corp., priority 2016, dated 2021)
